Assays:
[1] = test system: human retinal epithelial cells (HREC); assay: Mitochondrial membrane potential of high-glucose HRECs (JC-1, flow cytometry); format: cell-based; settings: 100 nM co-treatment with high glucose; 24 or 48 hours
Description: Assessment of D-Arg-2′,6′-Dmt-Lys-Phe-NH2 as a protectant against mitochondrial potential loss of HRECs treated with high-glucose was examined. To determine if a mitochondrial-mediated pathway was important in the protective effect of D-Arg-2′,6′-Dmt-Lys-Phe-NH2 against high glucose-induced cell death, ΔΨm was measured by flow cytometry. After treating the HRECs with high-glucose without D-Arg-2′,6′-Dmt-Lys-Phe-NH2 for 24 or 48 hours, a rapid loss of mitochondrial membrane potential was detected by JC-1 fluorescent probe as indicated by a significant decrease in the ratio of red to green fluorescence observed in the high glucose group.

caspase-3 in HRECs = assay: Caspase-3 protein expression in high glucose-treated HRECs (Western blot); format: cell-based, human; settings: 30 mM glucose co-treatment; 24 h and 48 h; p<0.05
Description: The level of cleaved caspase-3 protein expression was measured by Western blot (FIG. 5A). When HRECs were exposed to 30 mM glucose for 24 h and 48 h, the level of caspase-3 expression increased dramatically.

GTM cells [2] = assay: TMRM fluorescence (mitochondrial membrane potential), acute H2O2 injury, FACS, GTM cells; format: cell-based, human; settings: n=4
Text: Methods to measure mitochondrial membrane potential using TMRM useful in the studies of the present invention have been described by Andrea Rasola and Massimo Geuna, A flow cytometry assay simultaneously detects independent apoptotic parameters, Cytometry 45:151-157, 2001; Mitoprobe™ JC-1 Kit for Flow Cytometry, Molecular Probes, Invitrogen, USA.
The mitochondrial membrane potential (Δψm) of HTM and GTM cells was investigated when those cells were exposed to hydrogen peroxide prior to administration of D-Arg-2′,6′-Dmt-Lys-Phe-NH2. First, the mitochondrial membrane potential was measured using confocal microscopy of cells labeled with tetramethylrhodamine methyl ester (TMRM, 500 nM×30 min) (FIG. 15). The mitochondrial membrane potential was also measured using flow cytometry (FIGS. 16-17) by labeling cells with the mitochondrion-selective probe tetramethylrhodamine methyl ester (TMRM, 500 nM×30 min).
The effects of D-Arg-2′,6′-Dmt-Lys-Phe-NH2 at mitigating acute oxidative injury in GTM and HTM cells was investigated. […] The percentage of fluorescence intensity compared to GTM control in H2O2, D-Arg-2′,6′-Dmt-Lys-Phe-NH2 10^−6M, D-Arg-2′,6′-Dmt-Lys-Phe-NH2 10^−7M, D-Arg-2′,6′-Dmt-Lys-Phe-NH2 10^−8M were 35.2±2.12%, 56.2±4.04%, 50.3±4.46%, 47.5±2.82% respectively, n=4; the HTM groups were 37.4±0.725%, 57.7±1.80%, 50.6±3.06%, 49.4±2.27% respectively, n=4. ** means P<0.01 compared to GTM H2O2 group; * means P<0.05 compared to GTM H2O2 group; ▴ ▴ ▴ means P<0.001 compared to HTM H2O2 group.

GTM cells [3] = assay: Intracellular ROS production, acute H2O2 injury, FACS, GTM cells; format: cell-based, human; settings: n=3
Text: (§1) The percentage of intracellular ROS production compared to GTM control in GTM H2O2, D-Arg-2′,6′-Dmt-Lys-Phe-NH2 10^−6M, D-Arg-2′,6′-Dmt-Lys-Phe-NH2 10^−7M, D-Arg-2′,6′-Dmt-Lys-Phe-NH2 10^−8M groups were 146.0±2.27%, 84.5±8.75%, 102.0±5.69%, 133.0±5.17% respectively (n=3); the HTM groups were 153.0±3.46%, 79±2.39%, 91.8±3.49%, 129.0±8.24% respectively (n=4). P<0.001 GTM and HTM H2O2 Group compared to control; *** means P<0.001 compared to GTM H2O2 group; ▴ ▴ ▴ Means P<0.001 compared to HTM H2O2 group; ▴ ▴ means P<0.01 compared to HTM H2O2 group.

HTM cells = assay: Intracellular ROS production, acute H2O2 injury, FACS, HTM cells; format: cell-based, human; settings: n=4
Text: as §1

iHTM cells [4] = assay: ROS production, sustained oxidative injury by H2O2, iHTM cells; format: cell-based, human; settings: then 200 μM H2O2 24 h
Description: (§2) The effects of D-Arg-2′,6′-Dmt-Lys-Phe-NH2 on sustained oxidative injury of GTM and HTM cells was examined. Cells were pre-treated with 10^−6, 10^−7, 10^−8M of D-Arg-2′,6′-Dmt-Lys-Phe-NH2 for 1 h, and then incubated with 200 μM H2O2 for 24 h to investigate the protective effect of D-Arg-2′,6′-Dmt-Lys-Phe-NH2 in sustained oxidative stress.

iHTM cells [5] = assay: MMP decline, sustained oxidative injury by H2O2, iHTM cells; format: cell-based, human; settings: then 200 μM H2O2 24 h
Description: as §2

GTM and HTM cells = assay: Oxidative stress induced by hydrogen peroxide in GTM and HTM cells (collective conclusion); format: cell-based, human
Description: The cells were divided into three groups: “Group A” cells were exposed to hydrogen peroxide prior to administration of D-Arg-2′,6′-Dmt-Lys-Phe-NH2. “Group B” cells were exposed to D-Arg-2′,6′-Dmt-Lys-Phe-NH2 prior to administration of hydrogen peroxide. “Group C” cells were administered D-Arg-2′,6′-Dmt-Lys-Phe-NH2 and hydrogen peroxide simultaneously.
as §2

661W cells = assay: tBHP-induced death of 661W cone cells; format: cell-based, mouse; settings: different doses
Description: A cone cell specific line 661W was derived from a mouse retinal tumor. Methods useful in the present studies of 661W cells have been described previously. See generally, Gearóid Tuohy, Sophia Millington-Ward, Paul F. Kenna, Peter Humphries and G. Jane Farrar, Sensitivity of Photoreceptor-Derived Cell Line (661W) to Baculoviral p35, Z-VAD.FMK, and Fas-Associated Death Domain, Investigative Ophthalmology and Visual Science. 2002; 43:3583-3589. These cells were cultured to test the effects of the aromatic-cationic peptides of the invention in preventing or reducing oxidative damage in the cone cells (FIG. 27). First, it was shown that tBHP affected survival of 661W cells (FIG. 27A). Different doses of tBHP were administered to the cells for 3 h. Next, it was shown that different doses of D-Arg-2′,6′-Dmt-Lys-Phe-NH2 reduced tBHP-induced 661W cell death (FIG. 27B).

D-Arg-2′,6′-Dmt-Lys-Phe-NH2 was tested, and the “Δψm (ratio of red to green JC-1 fluorescence)” value [1] was “remained virtually unchanged”, the caspase-3 protein level (caspase-3 in HRECs) was “marked decrease” and the “percentage of TMRM fluorescence intensity compared to GTM control” value (GTM cells [2]; 10^−6M) was 56.2±4.04%. For the same substance, the “percentage of TMRM fluorescence intensity compared to GTM control” value (GTM cells [2]; 10^−7M) was 50.3±4.46%, the “percentage of TMRM fluorescence intensity compared to GTM control” value (GTM cells [2]; 10^−8M) was 47.5±2.82% and the “percentage of intracellular ROS production compared to GTM control” value (GTM cells [3]; 10^−6M) was 84.5±8.75%. The “percentage of intracellular ROS production compared to GTM control” value (GTM cells [3]; 10^−7M) was 102.0±5.69%, the “percentage of intracellular ROS production compared to GTM control” value (GTM cells [3]; 10^−8M) was 133.0±5.17% and the “percentage of intracellular ROS production compared to control” value (“percentage … to control” for short) (HTM cells; 10^−6M) was 79±2.39%. For the same substance, the “percentage … to control” value (HTM cells; 10^−7M) was 91.8±3.49%, the “percentage … to control” value (HTM cells; 10^−8M) was 129.0±8.24% and the “ROS Production” value (iHTM cells [4]; 0.01 μM pre-treatment 1 h) was 114.30 ± 3.89 %. The “ROS Production” value (iHTM cells [4]; 0.1 μM pre-treatment 1 h) was 82.89 ± 3.70 %, the “ROS Production” value (iHTM cells [4]; 1 μM pre-treatment 1 h) was 36.91 ± 1.47 % and the “MMP Decline” value (iHTM cells [5]; 0.01 μM pre-treatment 1 h) was −58.24 ± 2.62 %. For the same substance, the “MMP Decline” value (iHTM cells [5]; 0.1 μM pre-treatment 1 h) was −53.24 ± 2.52 %, the “MMP Decline” value (iHTM cells [5]; 1 μM pre-treatment 1 h) was −44.99 ± 2.19 % and the “concentration at which sustained and acute oxidative stress induced by hydrogen peroxide can be prevented” value (GTM and HTM cells) was > 10^−9 M. For the same substance, the “tBHP-induced 661W cell death” value (661W cells) was “reduced”.

From patent US20180296630A1, “METHODS AND COMPOSITIONS FOR PREVENTING OR TREATING OPHTHALMIC CONDITIONS” (Stealth BioTherapeutics Corp, priority 2012, published 2018)
